In ChEMBL document CHEMBL4619709, “Synthesis and in-vitro anti-cancer evaluations of multi-methoxylated asymmetrical diarylpentanoids as intrinsic apoptosis inducer against colorectal cancer” (Bioorg Med Chem Lett, 2020):
Calls of active or inactive are those of the source. The rule behind the calls is not given here.

Assays:
SW-620 [1] = experiment: Antiproliferative activity against human SW620 cells at 10 uM after 72 hrs by MTT assay; format: functional, cell-based
T84 [2] = experiment: Antiproliferative activity against human T84 cells at 10 uM after 72 hrs by MTT assay; format: functional, cell-based
[3] = Therapeutic index, ratio of IC50 for human NHDF cells to IC50 for human LoVo cells after 72 hrs; format: toxicity; conditions: NHDF cells versus LoVo cells, read-out: Ratio IC50
[4] = Therapeutic index, ratio of IC50 for human NHDF cells to IC50 for human SW620 cells after 72 hrs; format: toxicity; conditions: NHDF cells versus SW620 cells, read-out: Ratio IC50
NCI-H508 [5] = experiment: Antiproliferative activity against human NCI-H508 cells at 10 uM after 72 hrs by MTT assay; format: functional, cell-based
NCI-H508 [6] = experiment: Antiproliferative activity against human NCI-H508 cells assessed as reduction in cell viability after 72 hrs by MTT assay; format: functional, cell-based; conditions: NCI-H508, 72 h
NHDF = experiment: Cytotoxicity against human NHDF cells assessed as reduction in cell viability; format: cell-based
[7] = Therapeutic index, ratio of IC50 for human NHDF cells to IC50 for human HT-29 cells after 72 hrs; format: toxicity; conditions: NHDF cells versus HT-29 cells, read-out: Ratio IC50
RKO [8] = experiment: Antiproliferative activity against human RKO cells at 10 uM after 72 hrs by MTT assay; format: functional, cell-based
T84 [9] = experiment: Antiproliferative activity against human T84 cells assessed as reduction in cell viability after 72 hrs by MTT assay; format: functional, cell-based; conditions: T84, 72 h
[10] = Therapeutic index, ratio of IC50 for human NHDF cells to IC50 for human NCI-H508 cells after 72 hrs; format: toxicity; conditions: NHDF cells versus NCI-H508 cells, read-out: Ratio IC50
HT-29 [11] = experiment: Antiproliferative activity against human HT-29 cells assessed as reduction in cell viability after 72 hrs by MTT assay; format: functional, cell-based; conditions: HT-29, 72 h
HT-29 [12] = experiment: Antiproliferative activity against human HT-29 cells at 10 uM after 72 hrs by MTT assay; format: functional, cell-based
LoVo [13] = experiment: Antiproliferative activity against human LoVo cells assessed as reduction in cell viability after 72 hrs by MTT assay; format: functional, cell-based
SW-620 [14] = experiment: Antiproliferative activity against human SW620 cells assessed as reduction in cell viability after 72 hrs by MTT assay; format: functional, cell-based; conditions: SW-620, 72 h
LoVo [15] = experiment: Antiproliferative activity against human LoVo cells at 10 uM after 72 hrs by MTT assay; format: functional, cell-based
RKO [16] = experiment: Antiproliferative activity against human RKO cells assessed as reduction in cell viability after 72 hrs by MTT assay; format: functional, cell-based
[17] = Therapeutic index, ratio of IC50 for human NHDF cells to IC50 for human T84 cells after 72 hrs; format: toxicity; conditions: NHDF cells versus T84 cells, read-out: Ratio IC50
[18] = Therapeutic index, ratio of IC50 for human NHDF cells to IC50 for human RKO cells after 72 hrs; format: toxicity; conditions: NHDF cells versus RKO cells, read-out: Ratio IC50
RKO [19] = experiment: Induction of cell cycle arrest in human RKO cells assessed as accumulation at G0/G1 phase at 0.625 uM after 24 hrs by PI-staining based flow cytometry (reference value: 52%); format: functional
RKO [20] = experiment: Induction of apoptosis in human RKO cells assessed as reduction in bcl-xl expression after 24 hrs by Western blot analysis; format: functional, cell-based
RKO [21] = experiment: Induction of apoptosis in human RKO cells at 0.625 to 5 uM after by Annexin V-FITC/PI staining based flow cytometry; format: functional, cell-based; conditions: TDE = time-dependent effect
RKO [22] = experiment: Induction of cell cycle arrest in human RKO cells assessed as accumulation at S phase at 2.5 uM after 24 hrs by PI-staining based flow cytometry (reference value: 28%); format: functional
RKO [23] = experiment: Induction of apoptosis in human RKO cells assessed as reduction in bcl-2 expression after 24 hrs by Western blot analysis; format: functional, cell-based
RKO [24] = experiment: Induction of cell cycle arrest in human RKO cells assessed as accumulation at G0/G1 phase at 1.25 uM after 24 hrs by PI-staining based flow cytometry (reference value: 52%); format: functional
RKO [25] = experiment: Induction of cell cycle arrest in human RKO cells assessed as accumulation at G2/M phase at 0.625 uM after 24 hrs by PI-staining based flow cytometry (reference value: 20%); format: functional
RKO [26] = experiment: Induction of apoptosis in human RKO cells assessed as increase in bax protein expression after 24 to 72 hrs by Western blot analysis; format: functional, cell-based
RKO [27] = experiment: Induction of cell cycle arrest in human RKO cells assessed as accumulation at G2/M phase at 1.25 uM after 24 hrs by PI-staining based flow cytometry (reference value: 20%); format: functional
RKO [28] = experiment: Induction of apoptosis in human RKO cells assessed as reduction in procaspase-3 expression after 24 to 72 hrs by Western blot analysis; format: functional, cell-based
RKO [29] = experiment: Induction of ROS generation in human RKO cells by fluorescence based assay; format: functional, cell-based
RKO [30] = experiment: Induction of cell cycle arrest in human RKO cells assessed as accumulation at G0/G1 phase at 2.5 uM after 24 hrs by PI-staining based flow cytometry (reference value: 52%); format: functional
RKO [31] = experiment: Induction of apoptosis in human RKO cells after 24 to 72 hrs by Annexin V-FITC/PI staining based flow cytometry; format: functional, cell-based
RKO [32] = experiment: Induction of apoptosis in human RKO cells assessed as increase in bad protein expression after 24 to 72 hrs by Western blot analysis; format: functional, cell-based
RKO [33] = experiment: Induction of apoptosis in human RKO cells assessed as reduction in procaspase-9 expression after 24 to 72 hrs by Western blot analysis; format: functional, cell-based
RKO [34] = experiment: Induction of apoptosis in human RKO cells assessed as increase in caspase-9 expression after 24 to 72 hrs by Western blot analysis; format: functional, cell-based
RKO [35] = experiment: Inhibition of colony formation in human RKO cells at 1.25 to 5 uM after 9 days by crystal violet staining based assay; format: functional, cell-based
RKO [36] = experiment: Inhibition of colony formation in human RKO cells after 9 days by crystal violet staining based assay; format: functional, cell-based
RKO [37] = experiment: Induction of apoptosis in human RKO cells assessed as reduction in bcl-xl expression after 72 hrs by Western blot analysis; format: functional, cell-based
RKO [38] = experiment: Induction of cell cycle arrest in human RKO cells assessed as accumulation at S phase at 1.25 uM after 24 hrs by PI-staining based flow cytometry (reference value: 28%); format: functional
RKO [39] = experiment: Inhibition of colony formation in human RKO cells at 0.625 uM treated for 9 days by crystal violet staining based assay; format: functional, cell-based
RKO [40] = experiment: Induction of cell cycle arrest in human RKO cells assessed as accumulation at G2/M phase at 2.5 uM after 24 hrs by PI-staining based flow cytometry (reference value: 20%); format: functional
RKO [41] = experiment: Induction of cell cycle arrest in human RKO cells assessed as accumulation at S phase at 0.625 uM after 24 hrs by PI-staining based flow cytometry (reference value: 28%); format: functional
RKO [42] = experiment: Induction of apoptosis in human RKO cells assessed as reduction in procaspase-7 expression after 24 to 72 hrs by Western blot analysis; format: functional, cell-based

SMILES: COc1cc(/C=C2\CCC/C(=C\c3ccc(F)c(F)c3)C2=O)cc(OC)c1OC
- Activity (SW-620 [1]): Active
- Activity (T84 [2]): Active
- selectivity ratio at 72 h [3]: 2.7 to 6.5
- selectivity ratio at 72 h [4]: 2.7 to 6.5
- Activity (NCI-H508 [5]): Active
- IC50 (NCI-H508 [6]): 4000 nM
- IC50 (NHDF): 11100 nM
- selectivity ratio at 72 h [7]: 2.7 to 6.5
- Activity (RKO [8]): Active
- IC50 (T84 [9]): 3500 nM
- selectivity ratio at 72 h [10]: 2.7 to 6.5
- IC50 (HT-29 [11]): 1700 nM
- Activity (HT-29 [12]): Active
- IC50 (LoVo [13]): 2300 nM
- IC50 (SW-620 [14]): 4100 nM
- Activity (LoVo [15]): Active
- IC50 (RKO [16]): 2200 nM
- selectivity ratio at 72 h [17]: 2.7 to 6.5
- selectivity ratio at 72 h [18]: 2.7 to 6.5

SMILES: COc1cc(/C=C2\CCC/C(=C\c3ccc(O)c(O)c3)C2=O)cc(OC)c1OC
- Activity (SW-620 [1]): Active
- Activity (T84 [2]): Active
- selectivity ratio at 72 h [3]: 1.1 to 3.3
- selectivity ratio at 72 h [4]: 1.1 to 3.3
- Activity (NCI-H508 [5]): Active
- IC50 (NCI-H508 [6]): 7000 nM
- IC50 (NHDF): 9000 nM
- selectivity ratio at 72 h [7]: 1.1 to 3.3
- Activity (RKO [8]): Active
- IC50 (T84 [9]): 3600 nM
- selectivity ratio at 72 h [10]: 1.1 to 3.3
- IC50 (HT-29 [11]): 8500 nM
- Activity (HT-29 [12]): Active
- IC50 (LoVo [13]): 2700 nM
- IC50 (SW-620 [14]): 3200 nM
- Activity (LoVo [15]): Active
- IC50 (RKO [16]): 3100 nM
- selectivity ratio at 72 h [17]: 1.1 to 3.3
- selectivity ratio at 72 h [18]: 1.1 to 3.3

SMILES: COc1cc(/C=C2\CCC/C(=C\c3ccccc3F)C2=O)cc(OC)c1OC
- Activity (SW-620 [1]): Active
- Activity (T84 [2]): Active
- selectivity ratio at 72 h [3]: 1.8 to 2.7
- selectivity ratio at 72 h [4]: 1.8 to 2.7
- Activity (NCI-H508 [5]): Active
- IC50 (NCI-H508 [6]): 2000 nM
- IC50 (NHDF): 4000 nM
- selectivity ratio at 72 h [7]: 1.8 to 2.7
- Activity (RKO [8]): Active
- IC50 (T84 [9]): 2200 nM
- selectivity ratio at 72 h [10]: 1.8 to 2.7
- IC50 (HT-29 [11]): 1600 nM
- Activity (HT-29 [12]): Active
- IC50 (LoVo [13]): 1900 nM
- IC50 (SW-620 [14]): 2100 nM
- Activity (LoVo [15]): Active
- IC50 (RKO [16]): 1500 nM
- selectivity ratio at 72 h [17]: 1.8 to 2.7
- selectivity ratio at 72 h [18]: 1.8 to 2.7

SMILES: COc1cc(/C=C2\CCC/C(=C\c3ccc(O)c(Cl)c3)C2=O)cc(OC)c1OC
- Activity (RKO [19]): 52%
- Activity (RKO [20]): Active
- Activity (SW-620 [1]): Active
- Activity (RKO [21]): Tde
- Activity (RKO [22]): 23%
- Activity (RKO [23]): Active
- Activity (T84 [2]): Active
- Activity (RKO [24]): 52%
- Activity (RKO [25]): 21%
- selectivity ratio at 72 h [3]: 1.8 to 9.9
- selectivity ratio at 72 h [4]: 1.8 to 9.9
- Activity (RKO [26]): Active
- Activity (RKO [27]): 28%
- Activity (NCI-H508 [5]): Active
- IC50 (NCI-H508 [6]): 4000 nM
- Activity (RKO [28]): Active
- IC50 (NHDF): 6900 nM
- Activity (RKO [29]): Dose-dependent effect
- selectivity ratio at 72 h [7]: 1.8 to 9.9
- Activity (RKO [8]): Active
- Activity (RKO [30]): 27%
- Activity (RKO [31]): Dose-dependent effect
- IC50 (T84 [9]): 1800 nM
- selectivity ratio at 72 h [10]: 1.8 to 9.9
- Activity (RKO [32]): Active
- Activity (RKO [33]): Active
- IC50 (HT-29 [11]): 3400 nM
- Activity (HT-29 [12]): Active
- IC50 (LoVo [13]): 1100 nM
- IC50 (SW-620 [14]): 800 nM
- Activity (RKO [34]): Active
- inhibition (RKO [35]): Active
- inhibition (RKO [36]): Dose-dependent effect
- Activity (RKO [37]): inactive
- Activity (LoVo [15]): Active
- Activity (RKO [38]): 20%
- inhibition (RKO [39]): inactive
- IC50 (RKO [16]): 700 nM
- selectivity ratio at 72 h [17]: 1.8 to 9.9
- Activity (RKO [40]): 50%
- selectivity ratio at 72 h [18]: 1.8 to 9.9
- Activity (RKO [41]): 27%
- Activity (RKO [42]): Active

SMILES: COc1ccccc1/C=C1\CCC/C(=C\c2cc(OC)c(OC)c(OC)c2)C1=O
- Activity (SW-620 [1]): Active
- Activity (T84 [2]): Active
- selectivity ratio at 72 h [3]: 3.6 to 7.2
- selectivity ratio at 72 h [4]: 3.6 to 7.2
- Activity (NCI-H508 [5]): Active
- IC50 (NCI-H508 [6]): 2200 nM
- IC50 (NHDF): 7900 nM
- selectivity ratio at 72 h [7]: 3.6 to 7.2
- Activity (RKO [8]): Active
- IC50 (T84 [9]): 2100 nM
- selectivity ratio at 72 h [10]: 3.6 to 7.2
- IC50 (HT-29 [11]): 1200 nM
- Activity (HT-29 [12]): Active
- IC50 (LoVo [13]): 1100 nM
- IC50 (SW-620 [14]): 2000 nM
- Activity (LoVo [15]): Active
- IC50 (RKO [16]): 1200 nM
- selectivity ratio at 72 h [17]: 3.6 to 7.2
- selectivity ratio at 72 h [18]: 3.6 to 7.2
